# Measurements from patent publication US20250171499A1, “PHARMACEUTICAL FORMULATIONS AND METHODS FOR THE TREATMENT OF METABOLIC AND LIVER DISORDERS” (Viking Therapeutics, Inc., priority 2022, published 2025).
# What was measured:
# GLP-1 receptor = GLP-1 receptor (Homo sapiens, UniProt P43220); settings: IC50 with 2% HSA to IC50 with 0% HSA
# GIP receptor = molecular target: T1, GIP receptor (Homo sapiens, UniProt P48546); test: Binding assay in the presence or absence of 2% human serum albumin, GIP receptor; settings: IC50 with 2% HSA to IC50 with 0% HSA
# T1 sequence (P48546 22-466): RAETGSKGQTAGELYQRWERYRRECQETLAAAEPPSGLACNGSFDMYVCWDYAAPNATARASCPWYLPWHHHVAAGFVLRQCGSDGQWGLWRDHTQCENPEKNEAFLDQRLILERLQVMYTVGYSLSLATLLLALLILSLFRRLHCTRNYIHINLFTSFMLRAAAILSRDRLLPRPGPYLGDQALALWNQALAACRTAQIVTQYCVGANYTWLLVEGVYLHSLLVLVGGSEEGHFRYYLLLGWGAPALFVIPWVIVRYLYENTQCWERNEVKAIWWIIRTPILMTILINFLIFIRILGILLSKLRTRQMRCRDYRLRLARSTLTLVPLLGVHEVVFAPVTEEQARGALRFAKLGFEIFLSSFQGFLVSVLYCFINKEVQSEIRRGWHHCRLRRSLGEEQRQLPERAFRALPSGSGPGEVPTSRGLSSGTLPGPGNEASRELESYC
# [1] = Pharmacokinetics study of formulations, subcutaneous dosing; type: in vivo; settings: Formulation 2; SC 0.2 mg/kg; male cynomolgus monkeys
# Experimental: Formulation 1 included the compound in a vehicle of 0.1% bovine serum albumin in phosphate buffered saline solution. […] Samples were obtained at 1, 4, 8, 12, 24, 48, 72, 96, 120, 168, 192, 240 and 336 hours after the single dose was administered.
# Chain of GLP-1 receptor (P43220 24-463, species assumed): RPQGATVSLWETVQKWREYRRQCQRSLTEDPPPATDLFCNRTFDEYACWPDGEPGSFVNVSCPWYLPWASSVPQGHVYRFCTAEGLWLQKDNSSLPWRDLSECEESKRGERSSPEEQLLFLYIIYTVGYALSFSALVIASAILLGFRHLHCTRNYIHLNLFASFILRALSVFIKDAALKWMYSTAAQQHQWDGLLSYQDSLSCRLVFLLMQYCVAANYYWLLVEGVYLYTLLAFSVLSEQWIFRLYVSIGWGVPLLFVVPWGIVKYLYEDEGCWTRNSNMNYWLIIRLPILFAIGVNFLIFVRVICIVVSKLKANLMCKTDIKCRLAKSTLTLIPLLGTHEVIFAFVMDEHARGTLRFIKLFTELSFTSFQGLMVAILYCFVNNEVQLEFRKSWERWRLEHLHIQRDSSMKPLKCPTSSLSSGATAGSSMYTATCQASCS
compound,measurement,setting,value
CC[C@H](C)[C@H](NC(=O)[C@H](CC(C)C)NC(=O)[C@H](Cc1c[nH]c2ccccc12)NC(=O)[C@H](CCC(N)=O)NC(=O)[C@@H](NC(=O)[C@H](Cc1ccccc1)NC(=O)[C@H](C)NC(=O)[C@H](CCCCNC(=O)COCCOCCNC(=O)COCCOCCNC(=O)CC[C@H](NC(=O)CCCCCCCCCCCCCCCCCCP(=O)(O)O)C(=O)O)NC(=O)[C@H](CCC(N)=O)NC(=O)[C@H](C)NC(=O)[C@@H](NC(=O)[C@H](CCCCN)NC(=O)[C@H](CC(=O)O)NC(=O)[C@H](CC(C)C)NC(=O)C(C)(C)NC(=O)[C@@H](NC(=O)[C@H](CO)NC(=O)[C@H](Cc1ccc(O)cc1)NC(=O)[C@H](CC(=O)O)NC(=O)[C@H](CO)NC(=O)[C@@H](NC(=O)[C@H](Cc1ccccc1)NC(=O)[C@@H](NC(=O)CNC(=O)[C@H](CCC(=O)O)NC(=O)C(C)(C)NC(=O)[C@@H](N)Cc1ccc(O)cc1)[C@@H](C)O)[C@@H](C)O)[C@@H](C)CC)[C@@H](C)CC)C(C)C)C(=O)N[C@@H](C)C(=O)NCC(=O)NCC(=O)N1CCC[C@H]1C(=O)N[C@@H](CO)C(=O)N[C@@H](CO)C(=O)NCC(=O)N[C@@H](C)C(=O)N1CCC[C@H]1C(=O)N1CCC[C@H]1C(=O)N1CCC[C@H]1C(=O)N[C@@H](CO)C(N)=O [Compound 4],GLP-1 receptor Ratio of HSA:No HSA,GLP-1 receptor,6.42
same,GIP receptor Ratio of HSA:No HSA,GIP receptor,1.25
same,mean half life compared to tirzepatide,[1],twice as long
